Measured values from PubChem BioAssay AID2060624 (Molecular Pharmacology Branch, DTP, NCI, 2025).
pIC50: −log10 of the molar value.

Test system: 217524-143-R1-J4-PDC spheroids with HUVEC/MSC, viability
Test: Anticancer human tumor 217524-143-R1-J4-PDC patient-derived pancreatic carcinoma cell line growth inhibition [CLK]
Conditions: for pIC50: curve of first compound; for viability, T/C: stronger effect = lower value
From the text: A high-throughput screen of multi-cell type tumor spheroids was designed to identify active combinations of […] and targeted small molecules. Complex spheroids include a stromal component modeled by human endothelial cells (HUVEC) and fibroblasts modeled by human mesenchymal stem cells (MSCs). The concentration ranges selected for each drug and investigational agent were based upon clinically achievable concentrations if the clinical Cmax of the agent was known.
Compounds. The drugs and investigational agents: cirtuvivint (SM08502; NSC835563), CC-671 (NSC850746), vemurafenib (NSC761431), tapotoclax (NSC804041), sotorasib (NSC818433), adagrasib (NSC831453), MRTX-1133 (NSC836407), BAY2416964 (NSC825713), copanlisib (NSC816437), inavolisib (NSC800729), abemaciclib (NSC768073), osimertinib (NSC779217), entinostat (NSC756642), eltanexor (KPT-8602, NSC794443), venetoclax (NSC766270), ceralasertib (NSC777638), bortezomib (NSC756655), olaparib (NSC753686), talazoparib (NSC767125), alisertib (NSC759677), peposertib (NSC802822), gemcitabine (NSC613327), 5-fluorouracil (NSC19893), SN-38 (NSC673596), oxaliplatin (NSC266046), paclitaxel (NSC125973), and doxorubicin (NSC123127), were obtained from the National Cancer Institute (NCI) Developmental Therapeutics Program Chemical Repository. The FDA-approved anticancer drug set is available from the Developmental Therapeutics Program at https://dtp.cancer.gov/organization/dscb/obtaining/available plates.htm. […] The stock solutions were prepared in dimethyl sulfoxide (DMSO, Sigma-Aldrich, St. Louis, MO, cat. D2650), except for the platinum complexes which were prepared in saline (Quality Biological, Gaithersburg, MD, cat. 114-055-101), at 800-fold the tested concentration and stored at -70 degrees C prior to their use. All drugs and investigational agents were tested over a range starting from a high concentration at or near the clinical Cmax and decreasing in half-log increments. If the clinical Cmax for an agent had not been determined, the highest concentration tested was 10 microM.
Cell Culture. All cells were maintained in an incubator at 37 degrees C and 5% CO2 with 95% humidity. The PDC lines were cultured according to standard operating procedures established by the NCI PDMR. Briefly, all PDCs were thawed and cultured in Matrigel-coated flasks prepared with a working solution of 1X Ham's F-12 nutrient mix, without supplementation (Invitrogen, Waltham, MA, cat. 11765054), 100 U/mL penicillin-streptomycin (Invitrogen, cat. 15140122), and 2.5% Matrigel (Corning Inc., Corning, NY, cat. 354248) for the first three passages. The 947758-054-R-J2-PDC line was cultured in 6B/Colon 1A media, which includes advanced DMEM/F-12 (Thermo Fisher Scientific, cat. 12634028), 10 mM HEPES (Thermo Fisher Scientific, cat. 15630080), 1X GlutaMAX supplement (Thermo Fisher Scientific, cat. 35050061), 0.1 mg/mL primocin (InvivoGen, cat. ant-pm-2), 10% defined fetal bovine serum, heat inactivated (HyClone Laboratories Inc., cat. SH30070.03HI), 1.25 mM N-Acetyl-L-cysteine (Sigma-Aldrich, cat. A9165), 10 mM nicotinamide (Sigma-Aldrich, cat. N0636), 1X B-27 supplement (Thermo Fisher Scientific, cat. 17504044), 1X N-2 supplement (Thermo Fisher Scientific, cat. 17502048), and 10 microM Y-27632 dihydrochloride (Tocris Bioscience, cat. 1254). The 876862-298-R-J1-PDC was cultured in 6E media, which includes all 6B/Colon 1A media components plus 50% L-WRN conditioned media (ATCC, cat. CRL-3276), 50 ng/mL recombinant human EGF recombinant protein (hEGF; Thermo Fisher Scientific, cat. PHG0311), 10 ng/mL recombinant human fibroblast growth factor 10 (hGFG-10; PeproTech, cat. 100-26), 1 ng/mL recombinant human fibroblast growth factor 2 (hFGF-2; PeproTech, cat. 100-18B), and 1 µM prostaglandin E2 (PGE2; Tocris, cat. 2296). The 227483-062-R1-J1-PDC line was cultured in Panc media, containing all 6E components except hFGF-2, with the addition of 500 nM SB-431542 (Selleckchem, cat. S1067) and 10 nM gastrin (Tocris, cat. 3006). […]

[1] = second compound 0.0316 µM, first compound 0.0316 µM
[2] = second compound 0.0316 µM, first compound 0.1 µM
[3] = second compound 0.0316 µM, first compound 0.316 µM
[4] = second compound 0.0316 µM, first compound 1 µM
[5] = second compound 0.1 µM, first compound 0.0316 µM
[6] = second compound 0.1 µM, first compound 0.1 µM
[7] = second compound 0.1 µM, first compound 0.316 µM
[8] = second compound 0.1 µM, first compound 1 µM
[9] = second compound 0.316 µM, first compound 0.0316 µM
[10] = second compound 0.316 µM, first compound 0.1 µM
[11] = second compound 0.316 µM, first compound 0.316 µM
[12] = second compound 0.316 µM, first compound 1 µM
[13] = second compound 1 µM, first compound 0.0316 µM
[14] = second compound 1 µM, first compound 0.1 µM
[15] = second compound 1 µM, first compound 0.316 µM
[16] = second compound 1 µM, first compound 1 µM
[17] = second compound 3.16 µM, first compound 0.0316 µM
[18] = second compound 3.16 µM, first compound 0.1 µM
[19] = second compound 3.16 µM, first compound 0.316 µM
[20] = second compound 3.16 µM, first compound 1 µM
[21] = second compound 10 µM, first compound 0.0316 µM
[22] = second compound 10 µM, first compound 0.1 µM
[23] = second compound 10 µM, first compound 0.316 µM
[24] = second compound 10 µM, first compound 1 µM
[25] = second compound 0.0316 µM, first compound 0.00316 µM
[26] = second compound 0.0316 µM, first compound 0.01 µM
[27] = second compound 0.1 µM, first compound 0.00316 µM
[28] = second compound 0.1 µM, first compound 0.01 µM
[29] = second compound 0.316 µM, first compound 0.00316 µM
[30] = second compound 0.316 µM, first compound 0.01 µM
[31] = second compound 1 µM, first compound 0.00316 µM
[32] = second compound 1 µM, first compound 0.01 µM
[33] = second compound 3.16 µM, first compound 0.00316 µM
[34] = second compound 3.16 µM, first compound 0.01 µM
[35] = second compound 10 µM, first compound 0.00316 µM
[36] = second compound 10 µM, first compound 0.01 µM
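Also: spheroids exposed to agents for seven days before reading.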
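For viability, T/C in this document: 100% = DMSO vehicle control viability.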

CC(Nc1ccc2c(c1)OCCn1cc(N3C(=O)OCC3C(F)F)nc1-2)C(N)=O (stereo unspecified) + CN1CCN(c2cc(C(=O)Nc3cc4cc(-c5cnn(C)c5)ccc4cn3)ccn2)CC1
pIC50 (second compound 0.0316 µM): 7.21 | pIC50 (second compound 0.1 µM): > 7.50 | pIC50 (second compound 0.316 µM): > 7.50 | pIC50 (second compound 1 µM): > 7.50 | pIC50 (second compound 3.16 µM): > 7.50 | pIC50 (second compound 10 µM): > 7.50 | viability, T/C [1]: 75.1% | viability, T/C [2]: 30.5% | viability, T/C [3]: 16.9% | viability, T/C [4]: 6.57% | viability, T/C (second compound 0.0316 µM, first compound 3.16 µM): 5.62% | viability, T/C (second compound 0.0316 µM, first compound 10 µM): 3.9% | viability, T/C [5]: 40.8% | viability, T/C [6]: 24.6% | viability, T/C [7]: 10.2% | viability, T/C [8]: 5.26% | viability, T/C (second compound 0.1 µM, first compound 3.16 µM): 4.73% | viability, T/C (second compound 0.1 µM, first compound 10 µM): 3.98% | viability, T/C [9]: 19.2% | viability, T/C [10]: 9.36% | viability, T/C [11]: 6.98% | viability, T/C [12]: 4.68% | viability, T/C (second compound 0.316 µM, first compound 3.16 µM): 3.77% | viability, T/C (second compound 0.316 µM, first compound 10 µM): 3.27% | viability, T/C [13]: 2.47% | viability, T/C [14]: 1.63% | viability, T/C [15]: 1.31% | viability, T/C [16]: 1.2% | viability, T/C (second compound 1 µM, first compound 3.16 µM): 1.03% | viability, T/C (second compound 1 µM, first compound 10 µM): 0.93% | viability, T/C [17]: 0.62% | viability, T/C [18]: 0.64% | viability, T/C [19]: 0.73% | viability, T/C [20]: 0.58% | viability, T/C (second compound 3.16 µM, first compound 3.16 µM): 0.75% | viability, T/C (second compound 3.16 µM, first compound 10 µM): 0.64% | viability, T/C [21]: 0.11% | viability, T/C [22]: 0.18% | viability, T/C [23]: 0.18% | viability, T/C [24]: 0.13% | viability, T/C (second compound 10 µM, first compound 3.16 µM): 0.27% | viability, T/C (second compound 10 µM, first compound 10 µM): 0.2%

CCN1CCN(Cc2ccc(Nc3ncc(F)c(-c4cc(F)c5nc(C)n(C(C)C)c5c4)n3)nc2)CC1 + CN1CCN(c2cc(C(=O)Nc3cc4cc(-c5cnn(C)c5)ccc4cn3)ccn2)CC1
pIC50 (second compound 0.0316 µM): 6.65 | pIC50 (second compound 0.1 µM): 7.96 | pIC50 (second compound 0.316 µM): > 8.50 | pIC50 (second compound 1 µM): > 8.50 | pIC50 (second compound 3.16 µM): > 8.50 | pIC50 (second compound 10 µM): > 8.50 | viability, T/C [25]: 93.3% | viability, T/C [26]: 62.5% | viability, T/C [1]: 71.2% | viability, T/C [2]: 60% | viability, T/C [3]: 41% | viability, T/C [4]: 44.6% | viability, T/C [27]: 55.3% | viability, T/C [28]: 53.4% | viability, T/C [5]: 44.8% | viability, T/C [6]: 39% | viability, T/C [7]: 29.1% | viability, T/C [8]: 32.6% | viability, T/C [29]: 23.3% | viability, T/C [30]: 21.7% | viability, T/C [9]: 17.6% | viability, T/C [10]: 17.6% | viability, T/C [11]: 15.8% | viability, T/C [12]: 17.1% | viability, T/C [31]: 2.31% | viability, T/C [32]: 2.94% | viability, T/C [13]: 2.53% | viability, T/C [14]: 3.19% | viability, T/C [15]: 3.76% | viability, T/C [16]: 3.89% | viability, T/C [33]: 0.74% | viability, T/C [34]: 0.96% | viability, T/C [17]: 1.42% | viability, T/C [18]: 1.28% | viability, T/C [19]: 3% | viability, T/C [20]: 4.17% | viability, T/C [35]: 0.23% | viability, T/C [36]: 0.28% | viability, T/C [21]: 0.27% | viability, T/C [22]: 0.28% | viability, T/C [23]: 0.46% | viability, T/C [24]: 0.58%

COc1c(OCCCN2CCOCC2)ccc2c3n(c(=NC(=O)c4cnc(N)nc4)nc12)CCN3 + CN1CCN(c2cc(C(=O)Nc3cc4cc(-c5cnn(C)c5)ccc4cn3)ccn2)CC1
pIC50 (second compound 0.0316 µM): 8.20 | pIC50 (second compound 0.1 µM): > 8.50 | pIC50 (second compound 0.316 µM): > 8.50 | pIC50 (second compound 1 µM): > 8.50 | pIC50 (second compound 3.16 µM): > 8.50 | pIC50 (second compound 10 µM): > 8.50 | viability, T/C [25]: 72.3% | viability, T/C [26]: 35.1% | viability, T/C [1]: 8.37% | viability, T/C [2]: 4.22% | viability, T/C [3]: 3.38% | viability, T/C [4]: 2.18% | viability, T/C [27]: 40.3% | viability, T/C [28]: 24.1% | viability, T/C [5]: 7.97% | viability, T/C [6]: 4.61% | viability, T/C [7]: 2.58% | viability, T/C [8]: 2.72% | viability, T/C [29]: 18.8% | viability, T/C [30]: 12.1% | viability, T/C [9]: 5.45% | viability, T/C [10]: 3.87% | viability, T/C [11]: 2.75% | viability, T/C [12]: 2.26% | viability, T/C [31]: 2.94% | viability, T/C [32]: 1.77% | viability, T/C [13]: 1.27% | viability, T/C [14]: 1.02% | viability, T/C [15]: 0.59% | viability, T/C [16]: 0.49% | viability, T/C [33]: 0.65% | viability, T/C [34]: 0.68% | viability, T/C [17]: 0.5% | viability, T/C [18]: 0.47% | viability, T/C [19]: 0.5% | viability, T/C [20]: 0.45% | viability, T/C [35]: 0.14% | viability, T/C [36]: 0.14% | viability, T/C [21]: 0.19% | viability, T/C [22]: 0.13% | viability, T/C [23]: 0.25% | viability, T/C [24]: 0.19%
